Assay results reported in US9000044B2, “Substituted naphthylacetic acids” (Hoffmann-La Roche Inc., priority 2012, dated 2015).

These compounds were tested against human CRTH2 (Homo sapiens (Human), UniProt Q9Y5Y4) (assay: Calcium Flux Assay Using Fluorometric Imaging Plate Reader (FLIPR)). Conditions: CHO-K1 cells with G-alpha 16 and human CRTH2; inhibition of DK-PGD2 ligand-induced Ca2+ flux.
Format: cell-based
Method: Calcium Flux Assay Using Fluorometric Imaging Plate Reader (FLIPR)
Cell Culture Conditions: CHO-K1 cells previously transfected with G-alpha 16 were subsequently transfected with the human CRTH2 receptor and the neomycin resistance gene. Following selection in 800 μg/mL G418 (geneticin), individual clones were assayed for their receptor expression based on staining with an anti human CRTH2 IgG, followed by assaying for their response to 13,14-dihydro-15-keto Prostaglandin D2 (DK-PDG2) (ligand) in the Ca^2+ Flux assay. Positive clones were then cloned by limiting dilution cloning. The transfected cells were cultured in Ham's F-12 medium supplemented with 10% fetal bovine serum, 2 mM glutamine, 100 U/mL penicillin/100 μg/mL streptomycin, 200 μg/mL hygromycin B, and 800 μg/mL G418 (geneticin). Cells were harvested with trypsin-EDTA (trypsin-ethylenediaminetetraacetic acid) and counted using ViaCount® reagent (from Guava Technologies, Inc. which contains two DNA-binding dyes that enable the reagent user to distinguish between viable and non-viable cells). The cell suspension volume was adjusted to 2.5×10^5 cells/mL with complete growth media. Aliquots of 50 μL were dispensed into BD Falcon™ 384 well black/clear microplates (from BD Biosciences, a division of Becton, Dickinson and Company) and the microplates were placed in a 37° C. CO2 incubator overnight. The following day, the microplates were used in the assay.
Loading Buffer containing dye (from the FLIPR® Calcium 3 Assay Kit from Molecular Devices, a division of MDS Analytical Technologies and MDS Inc.) was prepared by dissolving the contents of one bottle into 200 mL Hank's Balanced Salt Solution containing 20 mM HEPES (4-(2-hydroxyethyl)-1-piperazineethanesulfonic acid) and 2.5 mM probenecid. Growth media was removed from the cell plates and 25 μL of Hank's Balanced Salt Solution (HBSS) containing 20 mM HEPES, 0.05% BSA and 2.5 mM probenecid was added to each well followed by 25 μL of diluted dye using a Multidrop dispenser. The plates were then incubated for 1 hour at 37° C.
During the incubation, test compound plates were prepared by adding 90 μL of HBSS/20 mM HEPES/0.005% BSA buffer to the 2 μL of serial diluted compounds. To prepare serial diluted compounds, 20 mM stocks of compounds were dissolved in 100% DMSO. The compound dilution plate was set up as follows: well #1 received 5 μL of compound plus 10 μL of DMSO. Wells 2-10 received 10 μL of DMSO. 5 μL was mixed and transferred from well #1 into well #2. 1:3 serial dilutions were continued out 10 steps. 2 μL of diluted compound was transferred into duplicate wells of a 384 well “assay plate” and then 90 μL of buffer was added.
After incubation, both the cell and “assay plate” plates were brought to the fluorometric imaging plate reader (FLIPR®) and 20 μL of the diluted compounds were transferred to the cell plates by the FLIPR®. Plates were then incubated for 1 hour at room temperature. […] During the assay, fluorescence readings were taken simultaneously from all 384 wells of the cell plate every 1.5 seconds. Five readings were taken to establish a stable baseline, then 20 μL of sample was rapidly (30 μL/sec) and simultaneously added to each well of the cell plate. The fluorescence was continuously monitored before, during and after sample addition for a total elapsed time of 100 seconds. Responses (increase in peak fluorescence) in each well following agonist addition were determined. The initial fluorescence reading from each well, prior to ligand stimulation, was used as a zero baseline value for the data from that well. The responses were expressed as % inhibition of the buffer control.

Chain of human CRTH2 (Q9Y5Y4 whole entry): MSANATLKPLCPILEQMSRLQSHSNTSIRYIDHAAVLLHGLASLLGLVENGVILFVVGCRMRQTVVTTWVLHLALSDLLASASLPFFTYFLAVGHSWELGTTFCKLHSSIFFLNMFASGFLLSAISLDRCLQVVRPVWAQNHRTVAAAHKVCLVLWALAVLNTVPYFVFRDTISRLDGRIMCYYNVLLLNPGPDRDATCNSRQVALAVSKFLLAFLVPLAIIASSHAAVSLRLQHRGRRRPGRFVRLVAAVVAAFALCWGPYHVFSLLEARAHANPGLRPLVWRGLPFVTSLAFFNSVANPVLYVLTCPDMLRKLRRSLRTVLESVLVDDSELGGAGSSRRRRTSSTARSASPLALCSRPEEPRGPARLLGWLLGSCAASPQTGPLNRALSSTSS

Q: For `Cc1c(CC(=O)O)cc2ccc(F)cc2c1-c1ccc(S(=O)(=O)c2ccccc2Cl)cc1` [Example 2, {4-[4-(2-Chloro-benzenesulfonyl)-phenyl]-6-fluoro-3-methyl-naphthalen-2-yl}-acetic acid], which IC50 is on record?
A: Its IC50 is 0.7 nM.

Q: With `Cc1c(CC(=O)O)cc2ccc(F)cc2c1-c1ccc(S(=O)(=O)c2cccc(Cl)c2)cc1` [Example 3, {4-[4-(3-Chloro-benzenesulfonyl)-phenyl]-6-fluoro-3-methyl-naphthalen-2-yl}-acetic acid] as the compound, how does the IC50 read?
A: Its IC50 is 3.9 nM.

Q: `Cc1c(CC(=O)O)cc2ccc(F)cc2c1-c1ccc(S(=O)(=O)c2ccc(Cl)cc2)cc1` [Example 4, {4-[4-(4-Chloro-benzenesulfonyl)-phenyl]-6-fluoro-3-methyl-naphthalen-2-yl}-acetic acid] was tested. Which IC50 did it give?
A: Its IC50 is 3.2 nM.

Q: `Cc1c(CC(=O)O)cc2ccc(F)cc2c1-c1ccc(S(=O)(=O)c2ccccc2C(F)(F)F)cc1` [Example 5, {6-Fluoro-3-methyl-4-[4-(2-trifluoromethyl-benzenesulfonyl)-phenyl]-naphthalen-2-yl}-acetic acid] was tested. Which IC50 did it give?
A: The IC50 was 1.3 nM.

Q: With `Cc1c(CC(=O)O)cc2ccc(F)cc2c1-c1ccc(S(=O)(=O)c2ccccc2OC(F)(F)F)cc1` [Example 6, {6-Fluoro-3-methyl-4-[4-(2-trifluoromethoxy-benzenesulfonyl)-phenyl]-naphthalen-2-yl}-acetic acid] as the compound, how does the IC50 read?
A: The IC50 was 1 nM.

Q: How did the IC50 turn out when `Cc1c(CC(=O)O)cc2ccc(F)cc2c1-c1ccc(S(=O)(=O)c2ccc(OC(F)(F)F)cc2)cc1` [Example 7, {6-Fluoro-3-methyl-4-[4-(4-trifluoromethoxy-benzenesulfonyl)-phenyl]-naphthalen-2-yl}-acetic acid] was run?
A: Its IC50 is 15.8 nM.

Q: `Cc1c(CC(=O)O)cc2ccc(F)cc2c1-c1ccc(S(=O)(=O)c2ccc(Cl)cc2Cl)cc1` [Example 8, {4-[4-(2,4-Dichloro-benzenesulfonyl)-phenyl]-6-fluoro-3-methyl-naphthalen-2-yl}-acetic acid] was tested. Which IC50 did it give?
A: Its IC50 is 9.1 nM.

Q: `Cc1c(CC(=O)O)cc2ccc(F)cc2c1-c1ccc(S(=O)(=O)c2cc(Cl)ccc2Cl)cc1` [Example 9, {4-[4-(2,5-Dichloro-benzenesulfonyl)-phenyl]-6-fluoro-3-methyl-naphthalen-2-yl}-acetic acid] was tested. Which IC50 did it give?
A: The IC50 was 3.7 nM.

Q: Which IC50 does the source give for `Cc1c(CC(=O)O)cc2ccc(F)cc2c1-c1ccc(S(=O)(=O)c2ccc(F)cc2F)cc1` [Example 10, {4-[4-(2,4-Difluoro-benzenesulfonyl)-phenyl]-6-fluoro-3-methyl-naphthalen-2-yl}-acetic acid] here?
A: The IC50 was 1.2 nM.

Q: `Cc1c(CC(=O)O)cc2ccc(F)cc2c1-c1ccc(S(=O)(=O)c2c(F)cccc2F)cc1` [Example 11, {4-[4-(2,6-Difluoro-benzenesulfonyl)-phenyl]-6-fluoro-3-methyl-naphthalen-2-yl}-acetic acid] was tested. Which IC50 did it give?
A: The IC50 was 1.2 nM.

Q: With `Cc1c(CC(=O)O)cc2ccc(F)cc2c1-c1ccc(S(=O)(=O)c2cc(C(F)(F)F)cc(C(F)(F)F)c2)cc1` [Example 12, {4-[4-(3,5-Bis-trifluoromethyl-benzenesulfonyl)-phenyl]-6-fluoro-3-methyl-naphthalen-2-yl}-acetic acid] as the compound, how does the IC50 read?
A: The IC50 was 14 nM.

Q: `Cc1c(CC(=O)O)cc2ccc(F)cc2c1-c1ccc(S(=O)(=O)c2cc(Cl)cc(Cl)c2)cc1` [Example 13, {4-[4-(3,5-Dichloro-benzenesulfonyl)-phenyl]-6-fluoro-3-methyl-naphthalen-2-yl}-acetic acid] was tested. Which IC50 did it give?
A: The IC50 was 5.4 nM.

Q: For `Cc1c(CC(=O)O)cc2ccc(F)cc2c1-c1ccc(S(=O)(=O)c2cc(F)cc(F)c2)cc1` [Example 14, {4-[4-(3,5-Difluoro-benzenesulfonyl)-phenyl]-6-fluoro-3-methyl-naphthalen-2-yl}-acetic acid], which IC50 is on record?
A: The IC50 was 1.6 nM.

Q: Which IC50 does the source give for `Cc1c(CC(=O)O)cc2ccc(Cl)cc2c1-c1ccc(S(=O)(=O)c2ccccc2Cl)cc1` [Example 15, {6-Chloro-4-[4-(2-chloro-benzenesulfonyl)-phenyl]-3-methyl-naphthalen-2-yl}-acetic acid] here?
A: The IC50 was 9.2 nM.

Q: With `Cc1c(CC(=O)O)cc2ccc(Cl)cc2c1-c1ccc(S(=O)(=O)c2cccc(Cl)c2)cc1` [Example 16] as the compound, how does the IC50 read?
A: Its IC50 is 8.1 nM.

Q: How did the IC50 turn out when `Cc1c(CC(=O)O)cc2ccc(Cl)cc2c1-c1ccc(S(=O)(=O)c2ccc(Cl)cc2)cc1` [Example 17, {6-Chloro-4-[4-(4-chloro-benzenesulfonyl)-phenyl]-3-methyl-naphthalen-2-yl}-acetic acid] was run?
A: Its IC50 is 7 nM.

Q: `Cc1c(CC(=O)O)cc2ccc(Cl)cc2c1-c1ccc(S(=O)(=O)c2ccccc2C(F)(F)F)cc1` [Example 18, {6-Chloro-3-methyl-4-[4-(2-trifluoromethyl-benzenesulfonyl)-phenyl]-naphthalen-2-yl}-acetic acid] was tested. Which IC50 did it give?
A: Its IC50 is 2.3 nM.

Q: For `Cc1c(CC(=O)O)cc2ccc(Cl)cc2c1-c1ccc(S(=O)(=O)c2ccccc2OC(F)(F)F)cc1` [Example 19, {6-Chloro-3-methyl-4-[4-(2-trifluoromethoxy-benzenesulfonyl)-phenyl]-naphthalen-2-yl}-acetic acid], which IC50 is on record?
A: The IC50 was 19.7 nM.

Q: With `Cc1c(CC(=O)O)cc2ccc(Cl)cc2c1-c1ccc(S(=O)(=O)c2ccc(OC(F)(F)F)cc2)cc1` [Example 20, {6-Chloro-3-methyl-4-[4-(4-trifluoromethoxy-benzenesulfonyl)-phenyl]-naphthalen-2-yl}-acetic acid] as the compound, how does the IC50 read?
A: Its IC50 is 12.9 nM.

Q: With `Cc1c(CC(=O)O)cc2ccc(Cl)cc2c1-c1ccc(S(=O)(=O)c2cc(Cl)ccc2Cl)cc1` [Example 22, {6-Chloro-4-[4-(2,5-dichloro-benzenesulfonyl)-phenyl]-3-methyl-naphthalen-2-yl}-acetic acid] as the compound, how does the IC50 read?
A: The IC50 was 4.4 nM.

Q: For `Cc1c(CC(=O)O)cc2ccc(Cl)cc2c1-c1ccc(S(=O)(=O)c2ccc(F)cc2F)cc1` [Example 23, {6-Chloro-4-[4-(2,4-difluoro-benzenesulfonyl)-phenyl]-3-methyl-naphthalen-2-yl}-acetic acid], which IC50 is on record?
A: The IC50 was 2.3 nM.

Q: For `Cc1c(CC(=O)O)cc2ccc(Cl)cc2c1-c1ccc(S(=O)(=O)c2c(F)cccc2F)cc1` [Example 24, {6-Chloro-4-[4-(2,6-difluoro-benzenesulfonyl)-phenyl]-3-methyl-naphthalen-2-yl}-acetic acid], which IC50 is on record?
A: The IC50 was 312 nM.

Q: For `Cc1c(CC(=O)O)cc2ccc(Cl)cc2c1-c1ccc(S(=O)(=O)c2cc(C(F)(F)F)cc(C(F)(F)F)c2)cc1` [Example 25, {4-[4-(3,5-Bis-trifluoromethyl-benzenesulfonyl)-phenyl]-6-chloro-3-methyl-naphthalen-2-yl}-acetic acid], which IC50 is on record?
A: The IC50 was 44.7 nM.

Q: Which IC50 does the source give for `Cc1c(CC(=O)O)cc2ccc(Cl)cc2c1-c1ccc(S(=O)(=O)c2cc(Cl)cc(Cl)c2)cc1` [Example 26, {6-Chloro-4-[4-(3,5-dichloro-benzenesulfonyl)-phenyl]-3-methyl-naphthalen-2-yl}-acetic acid] here?
A: Its IC50 is 22.1 nM.

Q: For `Cc1c(CC(=O)O)cc2ccc(Cl)cc2c1-c1ccc(S(=O)(=O)c2cc(F)cc(F)c2)cc1` [Example 27, {6-Chloro-4-[4-(3,5-difluoro-benzenesulfonyl)-phenyl]-3-methyl-naphthalen-2-yl}-acetic acid], which IC50 is on record?
A: The IC50 was 0.7 nM.

Q: How did the IC50 turn out when `Cc1c(CC(=O)O)cc2ccc(Cl)cc2c1-c1ccc(S(=O)(=O)Nc2ccc(F)cc2)cc1` [Example 28, {6-Chloro-4-[4-(4-fluoro-phenylsulfamoyl)-phenyl]-3-methyl-naphthalen-2-yl}-acetic acid] was run?
A: The IC50 was 1.1 nM.

Q: With `Cc1ccc(NS(=O)(=O)c2ccc(-c3c(C)c(CC(=O)O)cc4ccc(Cl)cc34)cc2)cc1` [Example 29, [6-Chloro-3-methyl-4-(4-p-tolylsulfamoyl-phenyl)-naphthalen-2-yl]-acetic acid] as the compound, how does the IC50 read?
A: Its IC50 is 2.7 nM.

Q: `Cc1c(CC(=O)O)cc2ccc(Cl)cc2c1-c1ccc(S(=O)(=O)Nc2ccc(OC(F)(F)F)cc2)cc1` [Example 30, {6-Chloro-3-methyl-4-[4-(4-trifluoromethoxy-phenylsulfamoyl)-phenyl]-naphthalen-2-yl}-acetic acid] was tested. Which IC50 did it give?
A: Its IC50 is 34.3 nM.
